Data reported in patent publication EP0617968B1, “HIV protease inhibitors in pharmaceutical combinations for the treatment of AIDS” (Merck & Co., Inc., priority 1993, dated 1994).

Target: T1, HIV protease (Human immunodeficiency virus type 1 group M subtype B, UniProt P04585)
T1 construct: made in house; host or cells: Escherichia coli
Test: biochemical
Conditions: protease expressed in Eschericia coli; peptide substrate 0.5 mg/mL; 50 mM Na acetate, pH 5.5, 30°C, 1 hour
Description: Assay for Inhibition of Microbial Expressed HIV Protease
Inhibition studies of the reaction of the protease expressed in Eschericia coli with a peptide substrate [Val-Ser-Gln-Asn-(betanapthyl)Ala-Pro-Ile-Val, 0.5 mg/mL at the time the reaction is initiated] were in 50 mM Na acetate, pH 5.5, at 30°C for 1 hour. Various concentrations of inhibitor in 1.0 ul DMSO were added to 25 ul of the peptide solution in water. The reaction is initiated by the addition of 15 ul of 0.33 nM protease (0.11 ng) in a solution of 0.133 M Na acetate pH 5.5 and 0.1% bovine serum albumin. The reaction was quenched with 160 ul of 5% phosphoric acid. Products of the reaction were separated by HPLC (VYDAC wide pore 5 cm C-18 reverse phase, acetonitrile gradient, 0.1 % phosphoric acid). The extent of inhibition of the reaction was determined from the peak heights of the products.

Row | IC50 | Compound
1 | 0.3 to 6 nM | CC(C)(C)NC(=O)[C@@H]1CN(C(=O)OCc2ccccc2)CCN1C[C@@H](O)C[C@@H](Cc1ccccc1)C(=O)N[C@H]1c2ccccc2C[C@H]1O [B, N-(2(R)-hydroxy-1(S)-indanyl)-2(R)-phenylmethyl-4(S)-hydroxy-5-(1-(4-carbobenzyloxy-2(S)-N'-(t-butylcarbamoyl)-piperazinyl))-pentaneamide]
2 | 0.3 to 6 nM | CC(C)(C)NC(=O)[C@@H]1C[C@@H]2CCCC[C@@H]2CN1C[C@@H](O)C[C@@H](Cc1ccccc1)C(=O)N[C@H]1c2ccccc2C[C@H]1O [A, N-(2(R)-hydroxy-1(S)-indanyl)-2(R)-phenylmethyl-4(S)-hydroxy-5-(2-(3(S)-N'-(t-butylcarbamoyl)-(4aS,8aS)-decahydroisoquinoline)yl)-pentaneamide]
